According to patent EP4671240A1, “SALT CONTAINING AROMATIC RING DERIVATIVE ANTAGONIST, PREPARATION METHOD THEREFOR, AND APPLICATION THEREOF” (Jiangsu Hansoh Pharmaceutical Group Co., Ltd., priority 2023, dated 2024):

Target: T1, ETA receptors (Homo sapiens, UniProt P25101)
T1 construct: host or cells: HEK293
T1 sequence (P25101 21-427): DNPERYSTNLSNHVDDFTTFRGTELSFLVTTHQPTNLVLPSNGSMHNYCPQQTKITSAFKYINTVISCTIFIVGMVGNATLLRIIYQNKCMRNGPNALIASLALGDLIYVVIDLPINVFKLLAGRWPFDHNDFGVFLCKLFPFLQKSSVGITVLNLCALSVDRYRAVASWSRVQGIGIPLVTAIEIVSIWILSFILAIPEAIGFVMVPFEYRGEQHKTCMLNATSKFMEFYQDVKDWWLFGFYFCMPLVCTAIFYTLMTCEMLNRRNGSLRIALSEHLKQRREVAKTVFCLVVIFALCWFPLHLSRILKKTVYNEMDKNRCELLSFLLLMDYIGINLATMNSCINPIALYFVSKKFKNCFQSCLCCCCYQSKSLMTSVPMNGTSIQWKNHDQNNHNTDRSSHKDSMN
Experiment: effect on calcium current in cells stably expressing ETA receptors (HEK293-ETA, FLIPR, antagonist)
Format: cell-based
Details: 11 concentration points 10 µM to 0.17 nM
Description: Test example 2. Determination of the effect of the compounds of the present invention on calcium current in cells stably expressing ETA receptors 1. Experimental objective: To test the antagonistic effect of compounds on HEK293-ETA cell activity 2. […] Experimental data processing method: FLIPR Tetra was used to read and collect the fluorescence signal value (RFU). The maximum RFU value was used to calculate the percent activation data based on the readings of the Low control (DMSO control) and High control (100 nM positive compound) experimental groups {% activation rate = (RFUsample - RFUlow control) / (RFUhigh control - RFUlow control)×100}. […]

CCCCC1=NC2(CCCC2)C(=O)N1Cc1ccc(-c2ccccc2S(=O)(=O)Nc2noc(C)c2Cl)c(COCC)c1 [Example 8, 2-[4-[(2-Butyl-4-oxo-1,3-diazaspiro[4.4]non-1-en-3-yl)methyl]-2-(ethoxymethyl)phenyl]-N-(4-chloro-5-methyl-isoxazol-3-yl)benzenesulfonamide]
IC50: 14.9 nM

[2H]C([2H])(c1ccc(-c2ccccc2S(=O)(=O)Nc2noc(C)c2Cl)c(COCC)c1)N1C(=O)C2(CCCC2)N=C1CCCC [Example 2, 4'-((2-Butyl-4-oxo-1,3-diazaspiro[4.4]non-1-en-3-yl)methyl-d2)-N-(4-chloro-5-methylisoxazol-3-yl)-2'-(ethoxymethyl)-[1,1'-biphenyl]-2-sulfonamide]
IC50: 15.1 nM
